The source made the active and inactive calls. No rule for the calls is given here.
Test system: CCRIS mutagenicity, Ames/micronucleus/aberration tests
Assay: CCRIS mutagenicity studies
[1] = Test System: AMES SALMONELLA TYPHIMURIUM, Strain/Indicator: TA97, Metabolic Activation: NONE, Method: PREINCUBATION
[2] = Test System: AMES SALMONELLA TYPHIMURIUM, Strain/Indicator: TA98, Metabolic Activation: NONE, Method: PREINCUBATION
[3] = Test System: AMES SALMONELLA TYPHIMURIUM, Strain/Indicator: TA100, Metabolic Activation: NONE, Method: PREINCUBATION
[4] = Test System: AMES SALMONELLA TYPHIMURIUM, Strain/Indicator: TA1535, Metabolic Activation: HAMSTER, LIVER, S-9, AROCLOR 1254 (10 OR 30%), Method: PREINCUBATION
[5] = Test System: AMES SALMONELLA TYPHIMURIUM, Strain/Indicator: TA1535, Metabolic Activation: NONE, Method: PREINCUBATION
[6] = Test System: AMES SALMONELLA TYPHIMURIUM, Strain/Indicator: TA1535, Metabolic Activation: RAT, LIVER, S-9, AROCLOR 1254 (10 OR 30%), Method: PREINCUBATION
[7] = Test System: AMES SALMONELLA TYPHIMURIUM, Strain/Indicator: TA97, Metabolic Activation: HAMSTER, LIVER, S-9, AROCLOR 1254 (10%), Method: PREINCUBATION
[8] = Test System: AMES SALMONELLA TYPHIMURIUM, Strain/Indicator: TA97, Metabolic Activation: RAT, LIVER, S-9, AROCLOR 1254 (10%), Method: PREINCUBATION
[9] = Test System: AMES SALMONELLA TYPHIMURIUM, Strain/Indicator: TA98, Metabolic Activation: HAMSTER, LIVER, S-9, AROCLOR 1254 (10%), Method: PREINCUBATION
[10] = Test System: AMES SALMONELLA TYPHIMURIUM, Strain/Indicator: TA98, Metabolic Activation: RAT, LIVER, S-9, AROCLOR 1254 (10%), Method: PREINCUBATION
[11] = Test System: AMES SALMONELLA TYPHIMURIUM, Strain/Indicator: TA100, Metabolic Activation: HAMSTER, LIVER, S-9, AROCLOR 1254 (10%), Method: PREINCUBATION
[12] = Test System: AMES SALMONELLA TYPHIMURIUM, Strain/Indicator: TA100, Metabolic Activation: RAT, LIVER, S-9, AROCLOR 1254 (10%), Method: PREINCUBATION

CCCCCCc1ccc(-c2ccc(C#N)cc2)cc1
mutagenic call (Test System: AMES SALMONELLA TYPHIMURIUM, Strain/Indicator: TA97, Metabolic Activation: HAMSTER, LIVER, S-9, AROCLOR 1254 (10 OR 30%), Method: PREINCUBATION): inactive; negative
mutagenic call [1]: inactive; negative
mutagenic call (Test System: AMES SALMONELLA TYPHIMURIUM, Strain/Indicator: TA97, Metabolic Activation: RAT, LIVER, S-9, AROCLOR 1254 (10 OR 30%), Method: PREINCUBATION): inactive; negative
mutagenic call (Test System: AMES SALMONELLA TYPHIMURIUM, Strain/Indicator: TA98, Metabolic Activation: HAMSTER, LIVER, S-9, AROCLOR 1254 (10 OR 30%), Method: PREINCUBATION): inactive; negative
mutagenic call [2]: inactive; negative
mutagenic call (Test System: AMES SALMONELLA TYPHIMURIUM, Strain/Indicator: TA98, Metabolic Activation: RAT, LIVER, S-9, AROCLOR 1254 (10 OR 30%), Method: PREINCUBATION): inactive; negative
mutagenic call (Test System: AMES SALMONELLA TYPHIMURIUM, Strain/Indicator: TA100, Metabolic Activation: HAMSTER, LIVER, S-9, AROCLOR 1254 (10 OR 30%), Method: PREINCUBATION): inactive; negative
mutagenic call [3]: inactive; negative
mutagenic call (Test System: AMES SALMONELLA TYPHIMURIUM, Strain/Indicator: TA100, Metabolic Activation: RAT, LIVER, S-9, AROCLOR 1254 (10 OR 30%), Method: PREINCUBATION): inactive; negative
mutagenic call [4]: inactive; negative
mutagenic call [5]: inactive; negative
mutagenic call [6]: inactive; negative
mutagenic call (Test System: AMES SALMONELLA TYPHIMURIUM, Strain/Indicator: TA1537, Metabolic Activation: HAMSTER, LIVER, S-9, AROCLOR 1254 (10 OR 30%), Method: PREINCUBATION): inactive; negative
mutagenic call (Test System: AMES SALMONELLA TYPHIMURIUM, Strain/Indicator: TA1537, Metabolic Activation: NONE, Method: PREINCUBATION): inactive; negative
mutagenic call (Test System: AMES SALMONELLA TYPHIMURIUM, Strain/Indicator: TA1537, Metabolic Activation: RAT, LIVER, S-9, AROCLOR 1254 (10 OR 30%), Method: PREINCUBATION): inactive; negative

ClCCN(CCCl)c1ccc2ccccc2c1
mutagenic call (Test System: AMES SALMONELLA TYPHIMURIUM, Strain/Indicator: TA100, Metabolic Activation: NONE, Method: STANDARD PLATE): active; positive
mutagenic call (Test System: AMES SALMONELLA TYPHIMURIUM, Strain/Indicator: TA100, Metabolic Activation: RAT, LIVER, S-9, AROCLOR 1254, Method: STANDARD PLATE): active; positive
mutagenic call (Test System: AMES SALMONELLA TYPHIMURIUM, Strain/Indicator: TA100, Metabolic Activation: RAT, LIVER, S-9, AROCLOR (10%), Method: STANDARD PLATE): active; positive
mutagenic call (Test System: AMES SALMONELLA TYPHIMURIUM, Strain/Indicator: TA100, Metabolic Activation: RAT, LIVER, S-9, AROCLOR (WITHOUT ADDED COFACTORS), Method: STANDARD PLATE): active; positive
mutagenic call (Test System: AMES SALMONELLA TYPHIMURIUM, Strain/Indicator: TA1535, Metabolic Activation: NONE, Method: STANDARD PLATE): active; positive
mutagenic call (Test System: AMES SALMONELLA TYPHIMURIUM, Strain/Indicator: TA1535, Metabolic Activation: RAT, LIVER, S-9, AROCLOR (10%), Method: STANDARD PLATE): active; positive

Oc1cc2ccccc2c2cc3c(ccc4ccccc43)nc12
mutagenic call (Test System: AMES SALMONELLA TYPHIMURIUM, Strain/Indicator: TA100, Metabolic Activation: GUINEA PIG, LIVER, S-9, 3-METHYLCHOLANTHRENE, Method: STANDARD PLATE): inactive; negative
mutagenic call (Test System: CHINESE HAMSTER V-79, Strain/Indicator: V-79/6-THIOGUANINE, Metabolic Activation: GUINEA PIG, LIVER, S-9, 3-METHYLCHOLANTHRENE): inactive; negative

O[C@@H]1[C@H]2O[C@H]2c2cc3c(ccc4ccccc43)cc2[C@H]1O
mutagenic call (Test System: CHINESE HAMSTER V-79, Strain/Indicator: V-79/8-AZAGUANINE, Metabolic Activation: NONE, Method: STANDARD PLATE): active; positive

CCNc1cccc(O)c1
mutagenic call [7]: inactive; negative
mutagenic call [1]: inactive; negative
mutagenic call [8]: inactive; negative
mutagenic call [9]: active; positive
mutagenic call [2]: inactive; negative
mutagenic call [10]: active; positive
mutagenic call [11]: inactive; negative
mutagenic call [3]: inactive; negative
mutagenic call [12]: inactive; negative
mutagenic call (Test System: AMES SALMONELLA TYPHIMURIUM, Strain/Indicator: TA1535, Metabolic Activation: HAMSTER, LIVER, S-9, AROCLOR 1254 (10%), Method: PREINCUBATION): inactive; negative
mutagenic call [5]: inactive; negative
mutagenic call (Test System: AMES SALMONELLA TYPHIMURIUM, Strain/Indicator: TA1535, Metabolic Activation: RAT, LIVER, S-9, AROCLOR 1254 (10%), Method: PREINCUBATION): inactive; negative

S=c1[nH]c2ccccc2[nH]1
mutagenic call [7]: inactive; negative
mutagenic call (Test System: AMES SALMONELLA TYPHIMURIUM, Strain/Indicator: TA97, Metabolic Activation: HAMSTER, LIVER, S-9, AROCLOR 1254 (30%), Method: PREINCUBATION): inactive; negative
mutagenic call [1]: inactive; negative
mutagenic call [8]: inactive; negative
mutagenic call (Test System: AMES SALMONELLA TYPHIMURIUM, Strain/Indicator: TA97, Metabolic Activation: RAT, LIVER, S-9, AROCLOR 1254 (30%), Method: PREINCUBATION): inactive; negative
mutagenic call [9]: inactive; negative
mutagenic call (Test System: AMES SALMONELLA TYPHIMURIUM, Strain/Indicator: TA98, Metabolic Activation: HAMSTER, LIVER, S-9, AROCLOR 1254 (30%), Method: PREINCUBATION): inactive; negative
mutagenic call [2]: inactive; negative
mutagenic call [10]: inactive; negative
mutagenic call (Test System: AMES SALMONELLA TYPHIMURIUM, Strain/Indicator: TA98, Metabolic Activation: RAT, LIVER, S-9, AROCLOR 1254 (30%), Method: PREINCUBATION): inactive; negative
mutagenic call [11]: inactive; negative
mutagenic call (Test System: AMES SALMONELLA TYPHIMURIUM, Strain/Indicator: TA100, Metabolic Activation: HAMSTER, LIVER, S-9, AROCLOR 1254 (30%), Method: PREINCUBATION): inactive; negative
mutagenic call [3]: inactive; negative
mutagenic call [12]: inactive; negative
mutagenic call (Test System: AMES SALMONELLA TYPHIMURIUM, Strain/Indicator: TA100, Metabolic Activation: RAT, LIVER, S-9, AROCLOR 1254 (30%), Method: PREINCUBATION): inactive; negative
mutagenic call [4]: inactive; negative
mutagenic call [5]: inactive; negative
mutagenic call [6]: inactive; negative

COC1=C[C@@H]2[C@@H]3Cc4ccc(OC)c(O)c4[C@]2(CCN3C)CC1=O
mutagenic call (Test System: AMES SALMONELLA TYPHIMURIUM, Strain/Indicator: TA98, Metabolic Activation: RAT, LIVER, S-9, PHENOBARBITAL AND BETA-NAPHTHOFLAVONE, Method: PREINCUBATION): inactive; negative
mutagenic call (Test System: AMES SALMONELLA TYPHIMURIUM, Strain/Indicator: TA100, Metabolic Activation: RAT, LIVER, S-9, PHENOBARBITAL AND BETA-NAPHTHOFLAVONE, Method: PREINCUBATION): inactive; negative

c1cc2ccc3cc4ccoc4c4ccc(c1)c2c34
mutagenic call (Test System: AMES SALMONELLA TYPHIMURIUM, Strain/Indicator: TA98, Metabolic Activation: NONE, Method: STANDARD PLATE): inactive; negative
mutagenic call (Test System: AMES SALMONELLA TYPHIMURIUM, Strain/Indicator: TA98, Metabolic Activation: RAT, LIVER, S-9, AROCLOR 1254, Method: STANDARD PLATE): active; positive

From PubChem BioAssay AID1259407 (Chemical Carcinogenesis Research Information System (CCRIS), 2018)
